Measured values published in patent US20250237649A1 (priority 2021, published 2025).
Entries after “also recorded” stand apart in the source; their conditions may differ. Like-named read-outs stand apart in the source and are kept apart here. Non-standard residues stand in square brackets, D forms with d. Residues, ends and D or L forms follow the SMILES beside them. *: point of attachment. Sta = CC(C)C[C@H](N)[C@@H](O)CC(=O)O; pNA = O=[N+]([O-])c1ccc(N*)cc1; Isovaleryl = CC(C)CC(=O)*; Cbz = O=C(OCc1ccccc1)*

Columns and labels:
M. bovis cells [1] = type: cell-based, Mycobacterium bovis
[2] = target: T1, purified recombinant Hip1 (Mycobacterium tuberculosis, UniProt P9WHR3); conditions: cited from earlier work
T1 sequence (P9WHR3 31-520): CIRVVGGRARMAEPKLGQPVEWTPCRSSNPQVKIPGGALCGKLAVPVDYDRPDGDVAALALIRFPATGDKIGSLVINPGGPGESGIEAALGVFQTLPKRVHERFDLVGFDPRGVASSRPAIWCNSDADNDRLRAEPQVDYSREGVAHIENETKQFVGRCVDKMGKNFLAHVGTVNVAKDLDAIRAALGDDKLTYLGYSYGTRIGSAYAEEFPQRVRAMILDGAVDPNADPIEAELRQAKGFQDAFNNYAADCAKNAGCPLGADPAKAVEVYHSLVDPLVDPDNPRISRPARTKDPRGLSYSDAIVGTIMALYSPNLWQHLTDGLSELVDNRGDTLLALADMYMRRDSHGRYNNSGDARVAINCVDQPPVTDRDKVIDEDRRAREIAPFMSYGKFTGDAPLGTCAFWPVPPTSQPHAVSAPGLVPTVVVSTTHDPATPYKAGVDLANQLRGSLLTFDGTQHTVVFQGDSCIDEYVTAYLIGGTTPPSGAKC

THP1 macrophages = test: Cytotoxicity against THP1 macrophages; type: cell-based
Mtb in THP-1 macrophages = test: Antitubercular activity (Mtb survival) in THP-1 macrophages; type: cell-based, Mycobacterium tuberculosis; conditions: for IC50: Mycobacterium tuberculosis, THP1MACROPHAGES
Description: FIG. 18A depicts time-dependent antitubercular activity in THP-1 macrophages. FIG. 18B depicts the average of the Hill slope values corresponding to the IC50 values used to plot the mean IC50 in FIG. 18A.

[3] = Cytotoxicity towards RAW macrophages; type: cell-based; conditions: mouse, read-out: TC50, cytotoxicity towards RAW macrophages
Protocol: (§1) Cells were seeded in plates and incubated overnight in a humidified incubator at 37° C., 5% CO2. […] After 72-hours of incubation, CellTiter-Glo® reagent (Promega) was added to plates and the relative luminescent units (RLU) were measured using a Synergy 4 plate reader (Biotek). […] Growth inhibition curves were fitted using the Levenberg-Marquardt algorithm. The IC50 was defined as the compound concentration that produced 50% of the growth inhibitory response.

[4] = Cytotoxicity towards HepG2 hepatocytes; type: cell-based; conditions: human, read-out: TC50, cytotoxicity towards HepG2 hepatocytes
Protocol: as §1

M. bovis cells [5] = type: cell-based, Mycobacterium bovis; conditions: cell culture
[6] = THP-1, 24 h, read-out: IC50 Mean ± SEM
[7] = THP-1, 72 h, read-out: IC50 Mean ± SEM
[8] = THP-1, 72 h, read-out: IC50 Range
[9] = THP-1 macrophages, time point 48 h, read-out: IC50 Mean ± SEM
[10] = THP-1 macrophages, time point 48 h, read-out: IC50 Range

O=C(O)CN(CCN(CC(=O)O)CC(=O)O)CC(=O)O [EDTA]
Inhibition of cleavage of UFNG1 by M. bovis cells (M. bovis cells [1]; FRET substrate UFNG1): do not inhibit cleavage of UFNG1 appreciably

CC(=O)N[C@@H](CC(C)C)C(=O)N[C@@H](CC(C)C)C(=O)N[C@H](C=O)CCCNC(=N)N [leupeptin]
Inhibition of Hip1 (studies have shown) [2]: inhibit Hip1

COC(=O)C(=O)[C@H](C[C@@H]1CCNC1=O)NC(=O)[C@H](CCCCN)NC(=O)[C@H](Cc1ccccc1)NC(=O)OCc1ccccc1 [Inhibitor Compound 2, Cbz-Phe-Lys-Glnlac-CO—CO2Me]
Cytotoxicity against THP1 macrophages (THP1 macrophages): does not have significant cytotoxicity
IC50 (Mtb in THP-1 macrophages; [6]): 104 ± 39.1 µM
IC50 (Mtb in THP-1 macrophages; THP-1, 24 h, read-out: IC50 Range): 44.4 to 178 µM
IC50 (Mtb in THP-1 macrophages; [7]): 51.8 ± 14.7 µM
IC50 (Mtb in THP-1 macrophages; [8]): 25.6 to 53.3 µM
IC50 (Mtb in THP-1 macrophages; [9]): 58.4 ± 1.15 µM
IC50 (Mtb in THP-1 macrophages; [10]): 57.3 to 59.6 µM
Mtb survival in THP1 macrophages (Mtb in THP-1 macrophages): effectively reduces Mtb survival
Inhibition of cleavage of UFNG1 by M. bovis cells (M. bovis cells [1]; FRET substrate UFNG1): most significant inhibition

CC(C)C[C@H](NC(=O)[C@@H](NC(=O)N[C@@H](Cc1ccccc1)C(=O)O)[C@@H]1CCN=C(N)N1)C(=O)N[C@H](C=O)Cc1ccccc1 [chymostatin]
Inhibition of Hip1 (studies have shown) [2]: inhibit Hip1

CC(C)C[C@H](NC(=O)[C@H]1O[C@@H]1C(=O)O)C(=O)NCCCCN=C(N)N [E-64]
Inhibition of cleavage of UFNG1 by M. bovis cells (M. bovis cells [1]; FRET substrate UFNG1): do not inhibit cleavage of UFNG1 appreciably

COC(=O)C(=O)[C@H](CC(C)C)NC(=O)[C@H](CCCCN)NC(=O)[C@H](Cc1ccccc1)NC(=O)OCc1ccccc1 [Cbz-Phe-Lys-Leu-CO—CO2Me]
CC50 at 72 h [3]: > 100 µM
CC50 at 72 h [4]: > 100 µM
Cytotoxicity against THP1 macrophages (THP1 macrophages): does not have significant cytotoxicity
IC50 (Mtb in THP-1 macrophages; [6]): 69.7 ± 18.7 µM
IC50 (Mtb in THP-1 macrophages; [7]): 13.9 ± 4.86 µM
IC50 (Mtb in THP-1 macrophages; [8]): 8.24 to 23.6 µM
IC50 (Mtb in THP-1 macrophages; [9]): 19.6 ± 4.98 µM
IC50 (Mtb in THP-1 macrophages; [10]): 12.7 to 29.3 µM
Mtb survival in THP1 macrophages (Mtb in THP-1 macrophages): effectively reduces Mtb survival
IC50 Range (Mtb in THP-1 macrophages; THP-1 macrophages, time point 24 h): 51.09 to 8.38 μM
Inhibition of cleavage of UFNG1 by M. bovis cells (M. bovis cells [1]; FRET substrate UFNG1): most significant inhibition

CC(C)C[C@H](NC(=O)[C@H](CCCCN)NC(=O)[C@H](Cc1ccccc1)NC(=O)OCc1ccccc1)C(=O)Nc1ccc([N+](=O)[O-])cc1 [Cbz-Phe-Lys-Leu-pNa] (Cbz-Phe-Lys-Leu-pNA)
Cleavage of substrate by M. bovis cells (M. bovis cells [5]): cleaved by M. bovis

CC(C)CC(=O)N[C@H](C(=O)N[C@H](C(=O)N[C@@H](CC(C)C)[C@@H](O)CC(=O)N[C@@H](C)C(=O)N[C@@H](CC(C)C)[C@@H](O)CC(=O)O)C(C)C)C(C)C [pepstatin] (Isovaleryl-VV[Sta]A[Sta]-OH)
Inhibition of cleavage of UFNG1 by M. bovis cells (M. bovis cells [1]; FRET substrate UFNG1): do not inhibit cleavage of UFNG1 appreciably

NCCc1ccc(S(=O)(=O)F)cc1 [AEBSF]
Inhibition of cleavage of UFNG1 by M. bovis cells (M. bovis cells [1]): most significant inhibition

O=S(=O)(F)Cc1ccccc1 [PMSF, phenylmethylsulfonyl fluoride]
Inhibition of cleavage of UFNG1 by M. bovis cells (M. bovis cells [1]): did not significantly inhibit cleavage
Inhibition of Hip1 (studies have shown) [2]: not an effective inhibitor of purified recombinant Hip1; also recorded: poor inhibitor of Hip1
